Test results published in patent US5350743A, “Bisphosphonic acid derivatives, as bone resorption inhibitors” (Kaken Pharmaceutical Co., Ltd., priority 1991, dated 1994).

Experiments:
[1] = tested on: bone resorption activities by PTH; type: in vivo, rat (Wister male); conditions: sc, 10 mg/kg; for Serum calcium value, 1 day value (b) / Serum increased calcium value [(b)-(a)]: 24 h
Text: Now, the test method with respect to the antihypercalcemic activities of the compounds of the present invention by using rats having the thyroid gland and the pala thyroid gland removed, and the results will be described.
Wister male rats of 7 weeks old (150-170 g) were anesthetized with nenbutal, and the thyroid gland and the pala thyroid gland were surgically removed by the method disclosed by Russel R. G. et al, Calcif. Tissue, Res., 183-196 (1970) and by Muehlbauer R. C. et al, Mineral Electrolyte Metab., 5 296-300 (1981). After the operation, the rats were fed on normal food for three days, and on the fourth day, the blood was sampled, and the serum calcium value was measured by an atomic absorption method, whereby rats having the serum calcium value lowered to a level of from 5 to 7 mg/de were selected.
These rats were divided into groups so that each group consisted of five rats. A compound of the present invention was dissolved in a 0.5% CMC aqueous solution or physiological saline and adjusted for administration at a dose of 10 mg/kg. Such a solution was subcutaneously administered at a dose of 2 ml/kg once a day for three days. To a control group, a 0.5% CMC aqueous solution or physiological saline was administered. Next day, 0.2 ml of the blood was sampled, and the serum calcium value was measured in the same manner as described above (this value was designated as 0 day value (a)).
At the same time, an osmotic pump (2001 Model, manufactured by Alza Co.) having parathyroid hormone (PTH) (50 μg/0.2 ml physiological saline) sealed in, was subcutaneously embedded on the back of each rat, and 24 hours later, the blood was sampled from the aorta abdominalis, whereupon the serum calcium value was measured (this value was designated as one day value (b)).
From the obtained results, the serum increased calcium value was calculated by the following formula: [formula]

[2] = toxicity, LD50, subcutaneous injection to mice; conditions: mouse, in vivo, sc, ddy mice male five weeks old (22-27 g)
Protocol: LD50 of the compounds of Examples 2, 14, 16, 18, 33, 34 and 58 was at least 100 mg/kg when subcutaneously injected to ddy mice (male) of five weeks old (22-27 g).

SMILES	Serum calcium value, 0 day value (a) [1] [µg/mL]	Serum calcium value, 1 day value (b) [1] [µg/mL]	Serum increased calcium value [(b)-(a)] [1] [µg/mL]	LD50 [2] [mg/kg]
NCCC(O)(P(=O)(O)O)P(=O)(O)O [APD, reference compound]	60.2 ± 8.32	83.6 ± 3.13	23.4 ± 6.50	
O=P(O)(O)C(N1CCC2(CCCCC2)CC1)P(=O)(O)O [Example 2, 3-azaspiro[5.5]undecan-3-yl-methylene bisphosphonic acid]	47.2 ± 2.22	109.0 ± 8.47	61.8 ± 7.38	≥ 100
O=P(O)(O)C(N1CCC2(CC1)CC2(F)F)P(=O)(O)O [Example 4, 1,1-difluoro-6-azaspiro[2.5]octan-6-yl-methylene bisphosphonic acid]	51.4 ± 7.23	128.7 ± 3.31	77.3 ± 6.37	
O=P(O)(O)C(N1CCC2(CCCC2)CC1)P(=O)(O)O [Example 6, 8-azaspiro[4.5]decan-8-yl-methylene bisphosphonic acid]	40.3 ± 3.61	90.6 ± 5.30	50.3 ± 6.25	
O=P(O)(O)C(N1CCCC12CCCCC2)P(=O)(O)O [Example 8, 1-azaspiro[4.5]decan-1-yl-methylene bisphosphonic acid]	47.1 ± 4.17	109.8 ± 2.07	62.7 ± 4.27	
O=P(O)(O)C(N1CCCCC12CCCCC2)P(=O)(O)O [Example 10, 1-azaspiro[5.5]undecan-1-yl-methylene bisphosphonic acid]	45.5 ± 5.54	108.8 ± 6.80	63.3 ± 1.91	
O=P(O)(O)C(N1CCCC2(CCCCC2)C1)P(=O)(O)O [Example 12, 2-azaspiro[5.5]undecan-2-yl-methylene bisphosphonic acid]	53.9 ± 7.82	138.9 ± 4.29	85.0 ± 6.27	
C=C1CCN(C(P(=O)(O)O)P(=O)(O)O)CC1 [Example 14, 4-methylidenepiperidinomethylene bisphosphonic acid]	60.99 ± 2.67	68.34 ± 2.94	7.35 ± 2.65	≥ 100
CCCCCC=C1CCN(C(P(=O)(O)O)P(=O)(O)O)CC1 [Example 16, 4-hexylidenepiperidinomethylene bisphosphonic acid]	52.12 ± 1.86	53.30 ± 4.89	1.18 ± 3.70	≥ 100
CC=C1CCN(C(P(=O)(O)O)P(=O)(O)O)CC1 [Example 18, 4-ethylidenepiperidinomethylene bisphosphonic acid]	61.34 ± 7.49	66.05 ± 6.68	4.72 ± 4.05	≥ 100
CCC=C1CCN(C(P(=O)(O)O)P(=O)(O)O)CC1 [Example 20]	63.02 ± 3.75	71.73 ± 6.32	8.71 ± 2.72	
CCCC=C1CCN(C(P(=O)(OCC)OCC)P(=O)(OCC)OCC)CC1 [Example 21, 4-Butylidenepiperidinomethylene bisphosphonic acid ethyl ester]	60.87 ± 5.61	65.92 ± 7.91	5.05 ± 3.19	
CCOP(=O)(OCC)C(N1CCC(Cc2ccccc2)CC1)P(=O)(OCC)OCC [Example 27, 4-Benzylpiperidinomethylene bisphosphonic acid ethyl ester]	66.2 ± 3.13	79.5 ± 2.77	13.3 ± 1.62	
CCOP(=O)(OCC)C(N1CCC(C(N)=O)(N2CCCCC2)CC1)P(=O)(OCC)OCC [Example 29, 4-Carbamoyl-4-(1-piperidyl)piperidinomethylene bisphosphonic acid ethyl ester]	66.7 ± 5.91	74.8 ± 1.82	8.1 ± 4.35	
CCOP(=O)(OCC)C(N1CCC(F)(F)CC1)P(=O)(OCC)OCC [Example 31, 4,4-Difluoropiperidinomethylene bisphosphonic acid ethyl ester]	65.3 ± 3.15	73.1 ± 3.96	7.8 ± 3.57	
CC1(Cl)CCN(C(P(=O)(O)O)P(=O)(O)O)CC1 [Example 33, 4-Chloro-4-methylpiperidinomethylene bisphosphonic acid]	52.1 ± 1.73	53.3 ± 4.91	1.2 ± 3.77	≥ 100
CC1(O)CCN(C(P(=O)(O)O)P(=O)(O)O)CC1 [Example 34, 4-Hydroxy-4-methylpiperidinomethylene bisphosphonic acid]	61.0 ± 2.82	68.3 ± 2.87	7.4 ± 2.69	≥ 100
CCCCCCC1(O)CCN(C(P(=O)(O)O)P(=O)(O)O)CC1 [Example 35, 4-Hexyl-4-hydroxypiperidinomethylene bisphosphonic acid]	70.8 ± 3.85	84.5 ± 6.73	13.7 ± 4.13	
CCOP(=O)(OCC)C(N1CCC(C)(F)CC1)P(=O)(OCC)OCC [Example 37, 4-Fluoro-4-methylpiperidinomethylene bisphosphonic acid ethyl ester]	53.8 ± 2.10	55.7 ± 3.63	1.9 ± 3.10	
CC(C)(C)C1(O)CCN(C(P(=O)(O)O)P(=O)(O)O)CC1 [Example 54, 4-t-Butyl-4-hydroxypiperidinomethylene bisphosphonic acid]	67.3 ± 2.83	77.0 ± 3.74	9.7 ± 5.32	
CC1(C)CCCN(C(P(=O)(O)O)P(=O)(O)O)C1 [Example 58, 3,3-dimethylpiperidinomethylene bisphosphonic acid]	50.8 ± 2.35	130.4 ± 7.57	79.6 ± 7.07	≥ 100
CC1(C)CCN(C(P(=O)(O)O)P(=O)(O)O)CC1 [Example 60, 4,4-dimethylpiperidinomethylene bisphosphonic acid]	46.5 ± 8.69	110.4 ± 1.59	63.9 ± 2.15	
